Values of other authors in US20070066602A1, “Process for Making Olanzapine Form I” (priority 2005, published 2007).

How the values were obtained:
[1] = at pH 6.8; free base, crystalline solid

## Cc1cc2c(s1)Nc1ccccc1N=C2N1CCN(C)CC1.O=C(O)c1ccccc1 [Olanzapine benzoate]
other
  solubility in water (qualitative): sparingly soluble in water

## Cc1cc2c(s1)Nc1ccccc1N=C2N1CCN(C)CC1 [olanzapine, Olanzapine]
other
  solubility in water (qualitative): insoluble in water
[1]
  solubility: about 0.02 mg/ml
